From paper PMC11547513, “Design, Synthesis and Biological Activity Evaluation of β-Carboline Derivatives Containing Nitrogen Heterocycles” (Molecules, 2024) come the findings set out here.

By melting point is commonly meant the temperature, or range, at which the solid turns liquid. By IC50 is commonly meant the point on the concentration scale where inhibition reaches its midpoint.

Where two headings read alike, the source gives them in different places. A value given as a limit tells only on which side of the number the result lay.

In data set [1] the test system is K562 (human chronic myeloid leukemia cell). As to the kind of experiment: MTT assay, in vitro cytotoxicity on K562. The settings on record: Homo sapiens; for inhibition at 10 µM: K562, read-out: Inhibitory Activity/% at 10 μM, K562. Background: Tetrazolium assays rely on reduction of a dye to a coloured formazan, in cell work by metabolically active cells.
Excerpt: (§5) Cells were purchased from the Cell Bank of the Chinese Academy of Sciences (Kunming, China).
The subject of data set [2] is A549 (human lung cancer cell). Put plainly: MTT assay, in vitro cytotoxicity on A549. The settings on record: for IC50: A549, read-out: IC50 (Mean ± S.D.), A549.
Excerpt: as §5
For data set [3], the system named is T47D (human breast cancer cell). As to the kind of experiment: MTT assay, in vitro cytotoxicity on T47D. The settings on record: for IC50: read-out: IC50 (Mean ± S.D.), T47D.
Excerpt: as §5
Data set [4] concerns Hek-293T (human embryonic kidney cells). As to the kind of experiment: MTT assay, in vitro cytotoxicity on normal Hek-293T. The settings on record: read-out: Inhibitory Activity/% at 10 μM, Hek-293T.
Excerpt: as §5
Data set [5] deals with PC-3 (human prostate cancer cell). Put plainly: MTT assay, in vitro cytotoxicity on PC-3.
Excerpt: as §5
The nature of data set [6]: Observation of water solubility / precipitation during the cell experiments. The settings on record: during antitumor activity measurement.
Data set [7] concerns PC-3 cells. As to the kind of experiment: Annexin V-FITC/PI apoptosis, flow cytometry. The format is cell-based, human. The settings on record: 30 μM. From the text:
(§1) Apoptosis is an important target for antitumor therapy. To explore the antitumor mechanism of compound 8q, cell apoptosis was detected using flow cytometry. […] Moreover, reactive oxygen species (ROS) play a significant role in cell growth, differentiation and apoptosis. Excessive ROS can cause oxidative damage and lead to cell apoptosis. […]
2.3.The effect of compound 8q on cell apoptosis
We used Annexin V-FITC/ PI double staining to evaluate cellular apoptosis via flow cytometry to figure out if apoptosis participates in the inhibition of cell growth.
PC-3 cells were seeded in a six-well plate at a density of 3 × 105, and cultured at 37 ℃ and 5% CO2 for 24 h before adding 10 μM. 20 μM and 30 μM compound 8q and 30 μM Harmine to each well. After 48 h, the cells were collected and stained and incubated flowing the manufacturer ’s protocol of the Annexin V-FITC/PI Apoptosis Detection Kit (Solarbio, Beijing, China). After completion, the cells were immediately detected on the Flow Cytometry (Solarbio, Beijing, China). The experimental results were processed using Flow Jo and Prism 7.04 software. […]
(In general: Flow cytometry measures light scatter and fluorescence of single cells or particles in a stream.)

The test system of data set [8] is PC-3 cells. Put plainly: Intracellular ROS assay (DCFH-DA, flow cytometry). The settings on record: 30 μM, 24 h; negative control MFI 19.8. It counts as cell-based, human. Here is the method:
as §1
(§2) a wound healing assay was performed using the method we previously reported1. In short, PC-3 cells were seeded in a six-well plate at a density of 10 × 105 and incubated at a constant temperature of 37 ℃ and 5% CO2 for 24 h. Then the pipette tip was used to create a uniform wound on the surface of cells. Subsequently, after cleaning twice with PBS, the scratch healing of the 8q treatment group and the positive drug treatment […]
(§3) was used to measure and quantify cell migration. […]
PC-3 cells were seeded in a six-well plate at a density of 3 × 105, and cultured at 37 ℃ and 5% CO2 for 24 h before adding 10 μM. […] After completion, the cells were immediately detected on the Flow Cytometry (Solarbio, Beijing, China). […]
at 37 ° C for 20 min. Subsequently, the staining solution was wash off with basic culture medium and detected the fluorescence intensity using the flow cytometer. The data was analyzed and obtained through Flow Jo and Prism 7.04 software. […]
(§4) The distribution of cycles was analyzed by Flow Jo and Prism 7.04 software. […]

In data set [9] the test system is PC-3 cells. As to the kind of experiment: Wound healing assay. The format is cell-based, human. The settings on record: 30 μM, 24 h; control group 46.41%. As for the experimental part: Given that cell migration plays a pivotal role in tumor cell invasion, to further validate the impact of compound 8q on PC-3 cell motility, a wound healing assay was conducted. […] These findings underscore the potent inhibitory effect of compound 8q on the motility of PC-3 cells. […]
as §2, §3

Data set [10] relates to PC-3 cells. As to the kind of experiment: Cell cycle assay (PI, flow cytometry). The settings on record: 30 μM, 24 h. The format is cell-based, human. Here is the method: To analyze the effect of compound 8q on cell cycle, the cycle of PC-3 cells was detected after being treated with compound 8q for 24 h (Figure 5). […] In addition, Cyclin D1, a cell cycle-related protein, is a key regulator of cycle progression, mainly regulating G1/S phase transition. […] In summary, compound 8q can arrest cells in the G0/G1 phase. […]
2.5. Cell cycle arrest of compound 8q on PC-3
To determine the effect of compound 8q on the cell cycle distribution of PC-3 cell, we used our previous method with slight modifications2. Briefly, cells were incubated in a six-well plate with a density of 3 × 105 at 37 ℃ and 5% CO2 for 24 h, followed by the addition of different concentrations of compound 8q for further incubation for 24 h.
Next, the cells were collected and washed twice with PBS. 75% anhydrous ethanol was used to immobilize the cells under overnight conditions at 4 ℃. Subsequently, PBS washed cells, and RNase from the cell cycle assay kit (Solarbio, Beijing, China) was added and incubated in a constant temperature (37 ℃) water bath for 30 min. Then PI was added under dark conditions and incubated at 4 ℃ for another half hour to detect.
as §4

The mark [11] stands for this setting: A549, read-out: Inhibitory Activity/% at 10 μM, A549.
[12] abbreviates: read-out: Inhibitory Activity/% at 10 μM, T47D.
The mark [13] stands for this setting: Homo sapiens, read-out: Inhibitory Activity/% at 10 μM, PC-3, Table 2 (8 series), 10 μM, average of three replicates, "/" means no anticancer activity.

`COc1cc(-c2nc(-c3nnc(SCC(=O)N4CCN(c5ccc(Br)cc5)CC4)o3)cc3c2[nH]c2ccccc23)cc(OC)c1OC` [Compound 8b]: the melting point is 155.8 to 157.9 °C. Besides, the inhibition at 10 µM in data set [1] stood at 10.8 ± 2.32%. Also, in data set [2] (setting [11]), the inhibition at 10 µM was 5.03 ± 5.42%. The inhibition at 10 µM in [3] (setting [12]) amounted to 10.6 ± 1.16%. Moreover, the inhibition at 10 µM in [4] worked out at 38.4 ± 3.85%. In addition, the inhibition at 10 µM in data set [5] (setting [13]) was determined as 8.91 ± 5.34%.
Molecule `COc1cc(-c2nc(-c3nnc(SCC(=O)N4CCN(c5ccc(F)cc5)CC4)o3)cc3c2[nH]c2ccccc23)cc(OC)c1OC` [Compound 8d] had a melting point of 156.8 to 158.1 °C. In addition, the inhibition at 10 µM in [1] is 8.62 ± 5.59%. Moreover, the inhibition at 10 µM in data set [2] (setting [11]) is 10.1 ± 4.44%. In addition, the inhibition at 10 µM in data set [3] (setting [12]) was < 0%. In [4], the inhibition at 10 µM is 36.9 ± 2.63%. The inhibition at 10 µM in data set [5] (setting [13]) stood at 17.9 ± 2.8%.
In turn, `COc1ccc(N2CCN(C(=O)CSc3nnc(-c4cc5c([nH]c6ccccc65)c(-c5cc(OC)c(OC)c(OC)c5)n4)o3)CC2)cc1` [Compound 8f] displayed a melting point of 156.5 to 158.6 °C. In addition, the inhibition at 10 µM in [1] was 7.87 ± 5.82%. In addition, in data set [2] (setting [11]), the inhibition at 10 µM was 13.2 ± 0.56%. Further, the inhibition at 10 µM in [3] (setting [12]) worked out at 6.91 ± 5.13%. Also, the inhibition at 10 µM in data set [4] was determined as 20.2 ± 4.34%. Further, the inhibition at 10 µM in data set [5] (setting [13]) was 34.5 ± 0.68%.
Take `COc1cc(-c2nc(-c3nnc(SCC(=O)N4CCN(c5ncccn5)CC4)o3)cc3c2[nH]c2ccccc23)cc(OC)c1OC` [Compound 8g]: the IC50 in data set [1] (K562, read-out: IC50 (Mean ± S.D.), K562, average of three replicates) is > 40 µM; in data set [2], > 40 µM; in data set [3], > 40 µM; in data set [5] (Homo sapiens, read-out: IC50 (Mean ± S.D.), PC-3, average of three replicates) it was < 10 µM; in [5] (read-out: IC50 (Mean ± S.D.), PC-3, average of three replicates), 9.56 ± 1.43 µM. The inhibition at 10 µM turned out to be 6.38 ± 0.52% in data set [1]; 35.8 ± 1.17% in data set [2] (setting [11]); 40.6 ± 4.48% in [3] (setting [12]); 29 ± 4.56% in data set [4]; 45.4 ± 0.82% in [5] (setting [13]). Also, the “Precipitation observed under microscopy” value in [6] is listed as “precipitate crystals”.
Consider `COc1cc(-c2nc(-c3nnc(SCC(=O)N4CCN(c5ccc(F)cc5F)CC4)o3)cc3c2[nH]c2ccccc23)cc(OC)c1OC` [Compound 8h], for which the melting point is 178.1 to 179.4 °C. For the same molecule, the inhibition at 10 µM in data set [1] amounted to 2.46 ± 1.78%. In addition, the inhibition at 10 µM in data set [2] (setting [11]) was 17.9 ± 2.91%. In addition, in data set [3] (setting [12]), the inhibition at 10 µM was < 0%. Besides, in data set [4], the inhibition at 10 µM worked out at 29.6 ± 3.04%. In data set [5] (setting [13]), the inhibition at 10 µM is 12.2 ± 1.13%.
As to `COc1cc(-c2nc(-c3nnc(SCC(=O)Nc4ccc(F)cc4)o3)cc3c2[nH]c2ccccc23)cc(OC)c1OC` [Compound 8k], the melting point was 235.8 to 237.4 °C. Moreover, in [1], the inhibition at 10 µM stood at 33.5 ± 8.79%. Besides, the inhibition at 10 µM in [2] (setting [11]) was determined as 33.2 ± 0.45%. Besides, in data set [3] (setting [12]), the inhibition at 10 µM was 6.94 ± 3.38%. In addition, the inhibition at 10 µM in [4] was 29.6 ± 2.33%. In addition, the inhibition at 10 µM in [5] (setting [13]) is > 40%. In addition, the “Inhibitory Activity/% at 10 μM, PC-3” value in data set [5] (Table 2 (8 series), 10 μM, average of three replicates, "/" means no anticancer activity) is recorded as 44.72 ± 1.82%.
`COc1cc(-c2nc(-c3nnc(SCC(=O)N4CCOc5ccccc54)o3)cc3c2[nH]c2ccccc23)cc(OC)c1OC` [Compound 8n] displayed a melting point of 225.9 to 226.8 °C. Also, the inhibition at 10 µM in [1] is 38.2 ± 3.73%. The inhibition at 10 µM in data set [2] (setting [11]) came to 7.62 ± 3.84%. Besides, in data set [3] (setting [12]), the inhibition at 10 µM is 25.6 ± 3.79%. In addition, the inhibition at 10 µM in data set [4] is 35.5 ± 1.75%. In addition, the inhibition at 10 µM in data set [5] (setting [13]) worked out at 32 ± 1.17%.
On to `COc1ccc2c(c1)[nH]c1c(C)nccc12` [Harmine, reference compound], for which the IC50 in [1] (K562, read-out: IC50 (Mean ± S.D.), K562) amounted to 15.7 ± 2.27 µM; in [2], 25.9 ± 4.78 µM; in data set [3], 38.5 ± 1.17 µM; in data set [5] (Homo sapiens, read-out: IC50 (Mean ± S.D.), PC-3) it was 24.4 ± 4.45 µM. In addition, the inhibition at 10 µM in data set [1] stood at 36 ± 2.77%; in data set [2] (A549, read-out: Inhibitory Activity/% at 10 μM, A549, Table 1 (7 series), 10 μM, average of three replicates, "/" means no anticancer activity), 31 ± 2.81%; in [2] (A549, read-out: Inhibitory Activity/% at 10 μM, A549, Table 2 (8 series), 10 μM, average of three replicates, "/" means no anticancer activity), 31.2 ± 2.67%; in data set [3] (read-out: Inhibitory Activity/% at 10 μM, T47D, Table 1 (7 series), 10 μM, average of three replicates, "/" means no anticancer activity), 51.3 ± 4.58%; in [3] (read-out: Inhibitory Activity/% at 10 μM, T47D, Table 2 (8 series), 10 μM, average of three replicates, "/" means no anticancer activity), 48.8 ± 2.37%; in [4], 29.1 ± 3.19%. The inhibition at 10 µM in data set [5] (Homo sapiens, read-out: Inhibitory Activity/% at 10 μM, PC-3) was 14.5 ± 1.42%. For the same molecule, the “Total apoptosis rate in PC-3 cells” value in data set [7] (48 h) is on record as 65.96%. Also, the “Annexin V-FITC/PI flow cytometry quadrant Q1” value in [7] (Figure 4A) stood at 0.21. Further, the “Annexin V-FITC/PI flow cytometry quadrant Q2” value in [7] (Figure 4A) is 35.4. In data set [7] (Figure 4A), the “Annexin V-FITC/PI flow cytometry quadrant Q3” value is 34.2. For the same molecule, in data set [7] (Figure 4A), the “Annexin V-FITC/PI flow cytometry quadrant Q4” value is 30.2. Moreover, in data set [8], the “ROS mean fluorescence intensity (MFI) value” is 37.9. Also, in data set [9], the “Migration rate of PC-3 cells” value turned out to be 21.51%. Further, in [10] (negative control 20.8%), the “Cell cycle distribution, S phase” value is listed as 26.4%. The “Cell cycle distribution, G2/M phase” value in [10] (negative control 23.6%) amounted to 49.0%. Moreover, in [10] (negative control 50.6%), the “Cell cycle distribution, G0/G1 phase” value was found to be 17.3%.
